# Assay results reported in the supplement of paper PMC10307832.
# How the values were obtained:
# Experiment in all cases: relative viability (nuclei count vs DMSO), 5 days (fraction); higher = more cells survive
# PC-14 = tested on: PC-14
# Procedure, shortened: (§1)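 Five library-drug doses in √10 steps were combined with a fixed anchor-drug dose, or a single drug was given alone, by pin tool to lung cancer cell lines in 1536-well plates the day after seeding. Nuclei were stained and counted after 5 days. Relative viability is the nuclei count in treated wells over that in vehicle wells, taken as the median of duplicate plates.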
# RERF-LC-KJ = tested on: RERF-LC-KJ
# Procedure, shortened: as §1
# LCLC-97TM1 = tested on: LCLC-97TM1
# Procedure, shortened: as §1
# LC-2-ad = tested on: LC-2-ad
# Procedure, shortened: as §1
# EPLC-272H = tested on: EPLC-272H
# Procedure, shortened: as §1
# NCI-H1666 = tested on: NCI-H1666
# Procedure, shortened: as §1
# NCI-H520 = tested on: NCI-H520
# Procedure, shortened: as §1
# NCI-H23 = tested on: NCI-H23
# Procedure, shortened: as §1
# NCI-H647 = tested on: NCI-H647
# Procedure, shortened: as §1
# NCI-H2126 = tested on: NCI-H2126
# Procedure, shortened: as §1
# 201T = tested on: 201T
# Procedure, shortened: as §1
compound,measurement,setting,value
Cc1sc2c(c1C)C(c1ccc(Cl)cc1)=N[C@@H](CC(=O)OC(C)(C)C)c1nnc(C)n1-2 [JQ1] + C[C@@H](Oc1cc(-c2cnn(C3CCNCC3)c2)cnc1N)c1c(Cl)ccc(F)c1Cl [Crizotinib] (partner 1 µM),relative viability,PC-14; first compound 0.1265 µM,0.781
same,relative viability,PC-14; first compound 0.4 µM,0.776
same,relative viability,PC-14; first compound 1.265 µM,0.611
same,relative viability,PC-14; first compound 4 µM,0.426
same,relative viability,RERF-LC-KJ; first compound 0.04 µM,0.783
same,relative viability,RERF-LC-KJ; first compound 0.1265 µM,0.879
same,relative viability,RERF-LC-KJ; first compound 0.4 µM,0.777
same,relative viability,RERF-LC-KJ; first compound 1.265 µM,0.635
same,relative viability,RERF-LC-KJ; first compound 4 µM,0.29
same,relative viability,LCLC-97TM1; first compound 0.1265 µM,0.285
same,relative viability,LCLC-97TM1; first compound 0.4 µM,0.19
same,relative viability,LCLC-97TM1; first compound 1.265 µM,0.118
same,relative viability,LCLC-97TM1; first compound 4 µM,0.117
same,relative viability,LC-2-ad; first compound 0.04 µM,0.44
same,relative viability,LC-2-ad; first compound 0.1265 µM,0.348
same,relative viability,LC-2-ad; first compound 0.4 µM,0.308
same,relative viability,LC-2-ad; first compound 1.265 µM,0.277
same,relative viability,LC-2-ad; first compound 4 µM,0.258
same,relative viability,EPLC-272H; first compound 0.04 µM,0.904
same,relative viability,EPLC-272H; first compound 0.1265 µM,0.759
same,relative viability,EPLC-272H; first compound 0.4 µM,0.885
same,relative viability,EPLC-272H; first compound 1.265 µM,0.364
same,relative viability,EPLC-272H; first compound 4 µM,0.37
same,relative viability,NCI-H1666; first compound 0.04 µM,0.771
same,relative viability,NCI-H1666; first compound 0.1265 µM,0.841
same,relative viability,NCI-H1666; first compound 0.4 µM,0.669
same,relative viability,NCI-H1666; first compound 1.265 µM,0.451
same,relative viability,NCI-H1666; first compound 4 µM,0.481
same,relative viability,NCI-H520; first compound 0.04 µM,0.97
same,relative viability,NCI-H520; first compound 0.1265 µM,0.997
same,relative viability,NCI-H520; first compound 0.4 µM,0.578
same,relative viability,NCI-H520; first compound 1.265 µM,0.368
same,relative viability,NCI-H520; first compound 4 µM,0.166
same,relative viability,NCI-H23; first compound 0.04 µM,0.441
same,relative viability,NCI-H23; first compound 0.1265 µM,0.61
same,relative viability,NCI-H23; first compound 0.4 µM,0.304
same,relative viability,NCI-H23; first compound 1.265 µM,0.163
same,relative viability,NCI-H23; first compound 4 µM,0.154
same,relative viability,NCI-H647; first compound 0.04 µM,1.03
same,relative viability,NCI-H647; first compound 0.1265 µM,0.486
same,relative viability,NCI-H647; first compound 0.4 µM,0.276
same,relative viability,NCI-H647; first compound 1.265 µM,0.0835
same,relative viability,NCI-H647; first compound 4 µM,0.0629
same,relative viability,NCI-H2126; first compound 0.04 µM,1.04
same,relative viability,NCI-H2126; first compound 0.1265 µM,0.987
same,relative viability,NCI-H2126; first compound 0.4 µM,0.901
same,relative viability,NCI-H2126; first compound 1.265 µM,0.966
same,relative viability,NCI-H2126; first compound 4 µM,0.754
same,relative viability,201T; first compound 0.04 µM,1.05
same,relative viability,201T; first compound 0.1265 µM,0.882
same,relative viability,201T; first compound 0.4 µM,0.93
same,relative viability,201T; first compound 1.265 µM,0.73
same,relative viability,201T; first compound 4 µM,0.602
